Results published in patent US20070254023A1, “Perorally Administrable Antimicrobial Composition” (priority 2004, published 2007).

System: bifidobacteria
Assay: Effect of peroral administration on bifidobacteria of the gut in CBA mice
Format: in vivo
Details: ten-day peroral course, tetracycline 750 mg/kg
Source text: Comparative experimental trials of the effect of peroral administration of antibiotics and an antibacterial composition comprising an antibiotic and lactulose on gut organisms and liver condition in CBA mice.
Models of experimental pathology caused by peroral administration of ampicillin and tetracycline in large doses were used.

SMILES: CN(C)[C@@H]1C(O)=C(C(N)=O)C(=O)[C@@]2(O)C(O)=C3C(=O)c4c(O)cccc4[C@@](C)(O)[C@H]3C[C@@H]12 [tetracycline]
- contents of bifidobacteria in the large intestine: reduced the contents of bifidobacteria
